Each compound was assayed on metabolism of retinoic acid in human breast cancer cells (assay: Inhibition of retinoic acid (RA) metabolism (Example C.1)). Conditions: MCF7; MCF-7 human breast cancer cells, 3H-RA as substrate; concentration needed to reduce the amount of metabolites to 50% of the control.
Assay type: cell-based
How it was run: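 Test compound (in 1% DMSO) added at several concentrations to MCF-7 cell suspensions fed ³H-RA, after RA induction of metabolism one day earlier. Scintillation counting of the separated polar metabolite fraction; IC50 = concentration giving 50% of control metabolite level.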

SMILES	IC50
CC(C)C(c1ccc(NC(=O)Nc2ccccn2)cc1)n1ccnc1 (racemic) [Compound 274, (±)-N-(2-pyridinyl)-N′-[4-[1-(1H-imidazol-1-yl)-2-methylpropyl]phenyl]urea]	6.64 nM

Same assay, conditions: MCF-7 human breast cancer cells, 3H-RA as substrate; concentration needed to reduce the amount of metabolites to 50% of the control

SMILES	IC50
CCC(CC)C(c1ccc(NC(=O)Cc2ccc(OC)c(C)c2)cc1)n1cncn1 (single isomer, unassigned) [Compound 85]	3.92 nM
C/C(=C\c1ccccc1)C(=O)Nc1ccc(C(/C=C/C(C)C)n2ccnc2)cc1 (centres unmarked) [Compound 479]	> 100 nM
O=C(Cc1ccc(Cl)cc1)Nc1ccc(C2(n3ccnc3)CCC2)cc1 [Compound 774]	5.27 nM
CCC(CC)C(c1ccc(NC(=O)C(O)c2ccc(Cl)cc2)cc1)n1cncn1 (centres unmarked) [Compound 4]	2.11 nM
CC(=CCCc1ccccc1)C(=O)Nc1ccc(C(C(C)C)n2ccnc2)cc1 (racemic) [Compound 587]	31.6 nM
CC(C)C(c1ccc(NC(=O)c2ccccc2)cc1)n1ccnc1 (racemic) [Compound 166]	1.75 nM
O=C(/C=C/c1ccccc1)Nc1ccc(C(c2cccc(F)c2)n2cncn2)cc1 (racemic) [Compound 618]	15.7 nM
CC(C)(C)CC(c1ccc(NC(=O)Cc2ccc(Cl)cc2)cc1)n1ccnc1 (racemic) [Compound 360]	1.08 nM
CC(C)C(c1ccc(NC(=O)Cc2ccc(Cl)cc2)cc1)(C(C)C)n1cncn1 [Compound 745]	3.87 nM
CCC(CC)C(c1ccc(NC(=O)Cc2cccc(OC)c2)cc1)n1cncn1 (racemic) [Compound 70]	0.295 nM
CCC(CC)C(c1ccc(NC(=O)c2ccc(OC)nc2)cc1)n1ccnc1 (racemic) [Compound 45]	0.172 nM
CCC(CC)C(c1ccc(NC(=O)Cc2cc(OC)ccc2OC)cc1)n1ccnc1 (racemic) [Compound 98]	1.64 nM
C/C(=C\c1ccccc1)C(=O)Nc1ccc(C(C(C)C)n2ccnc2)cc1 (racemic) [Compound 455]	2.87 nM
CC(C)(C)C(c1ccc(NC(=O)Cc2ccc(Cl)cc2)cc1)n1ccnc1 (centres unmarked) [Compound 365]	1.08 nM
CC(C)C(c1ccc(NC(=O)Nc2ccc(Cl)c(Cl)c2)cc1)n1ccnc1 (racemic) [Compound 732]	19.3 nM
C/C(=C\c1ccccc1)C(=O)Nc1ccc(C(C(C)c2ccccc2)n2ccnc2)cc1 (single isomer, unassigned) [Compound 490]	> 100 nM
O=C(Cc1ccc(Cl)cc1)Nc1ccc(C(C2CCCCC2)n2ccnc2)cc1 (centres unmarked) [Compound 362]	14.3 nM
CCC(CC)C(c1ccc(NC(=O)CCc2ccc(OC)c(OC)c2)cc1)n1cncn1 (racemic) [Compound 10]	1.55 nM
CC(=Cc1ccccc1)C(=O)Nc1ccc(C(CC(C)(C)C)n2ccnc2)cc1 (centres unmarked) [Compound 476]	35.5 nM
CC(C)C(c1ccc(NC(=O)Cc2cccc(F)c2)cc1)n1ccnc1 (centres unmarked) [Compound 656]	1.47 nM
COc1cc(CC(=O)Nc2ccc(C(C(C)N(C)C)n3cncn3)cc2)ccc1Cl (single isomer, unassigned) [Compound 297]	0.786 nM
CCC(CC)C(c1ccc(NC(=O)Cc2cccc(O)c2)cc1)n1ccnc1.O=C(O)C(=O)O (racemic) [Compound 109]	0.321 nM
Cc1onc(-c2ccccc2)c1C(=O)Nc1ccc(C(C(C)C)n2ccnc2)cc1 (centres unmarked) [Compound 250]	14.9 nM

SMILES	IC50
O=C(Nc1ccc(C(c2ccccc2)n2ccnc2)cc1)C(O)c1ccccc1 (centres unmarked) [Compound 420]	83.8 nM
CCC(CC)C(c1ccc(NC(=O)C2Oc3ccccc3O2)cc1)n1cncn1 (racemic) [Compound 621]	1.25 nM
CC(C)C(c1ccc(NC(=O)Cc2ccccn2)cc1)n1ccnc1 (racemic) [Compound 247]	35.5 nM
CC(C)Oc1ccc(CC(=O)Nc2ccc(C(C(C)N(C)C)n3ccnc3)cc2)cc1 (single isomer, unassigned) [Compound 316]	4.06 nM
CCCCC(c1ccc(NC(=O)/C(C)=C/c2ccccc2)cc1)(C(C)C)n1ccnc1 (racemic) [Compound 761]	> 100 nM
CCOc1ccc(CC(=O)Nc2ccc(C(C(CC)CC)n3ccnc3)cc2)cc1 (racemic) [Compound 95]	1.48 nM
C/C(=C\c1ccc2nnn(C)c2c1)C(=O)Nc1ccc(C(C(C)C)n2ccnc2)cc1 (racemic) [Compound 602]	25.7 nM
CCC(CC)C(c1ccc(NC(=O)Cc2ccc(Cl)cc2)cc1)n1ccnc1 (racemic) [Compound 87]	0.28 nM
CCC(C)C(c1ccc(NC(=O)C(C)=Cc2ccccc2)cc1)n1ccnc1 (mixture of isomers) [Compound 480]	4.25 nM
CCC(CC)C(c1ccc(NC(=O)CN2CCOCC2)cc1)n1ccnc1 (racemic) [Compound 47]	1.33 nM
CCC(CC)C(c1ccc(NC(=O)Nc2cccc(F)c2)cc1)n1ccnc1 (racemic) [Compound 724]	1.18 nM
CC(C(c1ccc(NC(=O)Cc2ccc3c(c2)OCCO3)cc1)n1ccnc1)N(C)C (single isomer, unassigned) [Compound 339]	1.23 nM
CC(C)C(c1ccc(NC(=O)Nc2ccccc2)cc1)n1ccnc1 (racemic) [Compound 742]	0.261 nM
CC(=Cc1ccccc1)C(=O)Nc1ccc(C(C(C)c2ccccc2)n2ccnc2)cc1 (single isomer, unassigned) [Compound 489]	> 100 nM
Cc1ccc(CC(=O)Nc2ccc(C(C(C)C)n3ccnc3)cc2)cc1 (racemic) [Compound 666]	14.5 nM
C/C(=C\c1ccccc1)C(=O)Nc1ccc(C(c2ccccn2)C(C)C)cc1 (centres unmarked) [Compound 682]	> 100 nM
C/C(=C\c1ccccc1)C(=O)Nc1ccc(C(n2ccnc2)C(C)(C)C)cc1 (racemic) [Compound 481]	2.83 nM
CC(C)(C)CC(c1ccc(NC(=O)Cc2ccc(Cl)cc2)cc1)n1cncn1 (racemic) [Compound 623]	1.38 nM
CC(C)C(c1ccc(NC(=O)CSCc2ccccc2)cc1)n1ccnc1 (racemic) [Compound 210]	29 nM
C/C(=C\c1ccncc1)C(=O)Nc1ccc(C(C(C)C)n2cncn2)cc1 (centres unmarked) [Compound 158]	> 100 nM
CC(Oc1ccccc1)C(c1ccc(NC(=O)Cc2ccc(Cl)cc2)cc1)n1ccnc1 (single isomer, unassigned) [Compound 370]	83.4 nM
CCC(CC)C(c1ccc(NC(=O)Cc2ccc(C)c(C)c2)cc1)n1ccnc1 (racemic) [Compound 112]	0.989 nM

These compounds were tested on Ovariectomized rats (assay: Vaginal keratinization test on ovariectomized rats (Example C.2)). Conditions: Rattus norvegicus, po, estradiol undecylate induced keratinization, per os once daily on days 1-3, active dose = 50% of rats show complete suppression, read-out: LAD (lowest active dose).
Assay type: in vivo
How it was run: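 Value is the lowest oral dose (mg/kg) at which half of tested rats show complete suppression of estradiol undecylate-induced vaginal keratinization by histology. Ovariectomized rats received 100 μg/100 g estradiol undecylate s.c., then compound or PEG 200 vehicle p.o. daily for three days; sacrifice one day later.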

SMILES	minimal effective dose
CC(C)C(c1ccc(NC(=O)Nc2ccccn2)cc1)n1ccnc1 (racemic) [Compound 274, (±)-N-(2-pyridinyl)-N′-[4-[1-(1H-imidazol-1-yl)-2-methylpropyl]phenyl]urea]	> 10 mg/kg

Same assay, conditions: estradiol undecylate induced keratinization, per os once daily on days 1-3, active dose = 50% of rats show complete suppression

SMILES	LAD (lowest active dose)
CCC(CC)C(c1ccc(NC(=O)Cc2ccc(OC)c(C)c2)cc1)n1cncn1 (single isomer, unassigned) [Compound 85]	2.50 mg/kg
C/C(=C\c1ccccc1)C(=O)Nc1ccc(C(/C=C/C(C)C)n2ccnc2)cc1 (centres unmarked) [Compound 479]	>10.00 mg/kg
O=C(Cc1ccc(Cl)cc1)Nc1ccc(C2(n3ccnc3)CCC2)cc1 [Compound 774]	10.00 mg/kg
CCC(CC)C(c1ccc(NC(=O)C(O)c2ccc(Cl)cc2)cc1)n1cncn1 (centres unmarked) [Compound 4]	0.60 mg/kg
CC(=CCCc1ccccc1)C(=O)Nc1ccc(C(C(C)C)n2ccnc2)cc1 (racemic) [Compound 587]	>10.00 mg/kg
CC(C)C(c1ccc(NC(=O)c2ccccc2)cc1)n1ccnc1 (racemic) [Compound 166]	5.00 mg/kg
O=C(/C=C/c1ccccc1)Nc1ccc(C(c2cccc(F)c2)n2cncn2)cc1 (racemic) [Compound 618]	>20.00 mg/kg
CC(C)(C)CC(c1ccc(NC(=O)Cc2ccc(Cl)cc2)cc1)n1ccnc1 (racemic) [Compound 360]	2.50 mg/kg
CC(C)C(c1ccc(NC(=O)Cc2ccc(Cl)cc2)cc1)(C(C)C)n1cncn1 [Compound 745]	>5.00 mg/kg
CCC(CC)C(c1ccc(NC(=O)Cc2cccc(OC)c2)cc1)n1cncn1 (racemic) [Compound 70]	5.00 mg/kg
CCC(CC)C(c1ccc(NC(=O)c2ccc(OC)nc2)cc1)n1ccnc1 (racemic) [Compound 45]	2.50 mg/kg
CCC(CC)C(c1ccc(NC(=O)Cc2cc(OC)ccc2OC)cc1)n1ccnc1 (racemic) [Compound 98]	5.00 mg/kg
C/C(=C\c1ccccc1)C(=O)Nc1ccc(C(C(C)C)n2ccnc2)cc1 (racemic) [Compound 455]	2.50 mg/kg
CC(C)(C)C(c1ccc(NC(=O)Cc2ccc(Cl)cc2)cc1)n1ccnc1 (centres unmarked) [Compound 365]	10.00 mg/kg
CC(C)C(c1ccc(NC(=O)Nc2ccc(Cl)c(Cl)c2)cc1)n1ccnc1 (racemic) [Compound 732]	>10.00 mg/kg
C/C(=C\c1ccccc1)C(=O)Nc1ccc(C(C(C)c2ccccc2)n2ccnc2)cc1 (single isomer, unassigned) [Compound 490]	2.50 mg/kg
O=C(Cc1ccc(Cl)cc1)Nc1ccc(C(C2CCCCC2)n2ccnc2)cc1 (centres unmarked) [Compound 362]	10.00 mg/kg
CCC(CC)C(c1ccc(NC(=O)CCc2ccc(OC)c(OC)c2)cc1)n1cncn1 (racemic) [Compound 10]	2.50 mg/kg
CC(=Cc1ccccc1)C(=O)Nc1ccc(C(CC(C)(C)C)n2ccnc2)cc1 (centres unmarked) [Compound 476]	>10.00 mg/kg
CC(C)C(c1ccc(NC(=O)Cc2cccc(F)c2)cc1)n1ccnc1 (centres unmarked) [Compound 656]	10.00 mg/kg
COc1cc(CC(=O)Nc2ccc(C(C(C)N(C)C)n3cncn3)cc2)ccc1Cl (single isomer, unassigned) [Compound 297]	>2.50 mg/kg
CCC(CC)C(c1ccc(NC(=O)Cc2cccc(O)c2)cc1)n1ccnc1.O=C(O)C(=O)O (racemic) [Compound 109]	2.50 mg/kg
Cc1onc(-c2ccccc2)c1C(=O)Nc1ccc(C(C(C)C)n2ccnc2)cc1 (centres unmarked) [Compound 250]	>10.00 mg/kg

SMILES	LAD (lowest active dose)
O=C(Nc1ccc(C(c2ccccc2)n2ccnc2)cc1)C(O)c1ccccc1 (centres unmarked) [Compound 420]	>20.00 mg/kg
CCC(CC)C(c1ccc(NC(=O)C2Oc3ccccc3O2)cc1)n1cncn1 (racemic) [Compound 621]	1.25 mg/kg
CC(C)C(c1ccc(NC(=O)Cc2ccccn2)cc1)n1ccnc1 (racemic) [Compound 247]	10.00 mg/kg
CC(C)Oc1ccc(CC(=O)Nc2ccc(C(C(C)N(C)C)n3ccnc3)cc2)cc1 (single isomer, unassigned) [Compound 316]	5.00 mg/kg
CCCCC(c1ccc(NC(=O)/C(C)=C/c2ccccc2)cc1)(C(C)C)n1ccnc1 (racemic) [Compound 761]	>5.00 mg/kg
CCOc1ccc(CC(=O)Nc2ccc(C(C(CC)CC)n3ccnc3)cc2)cc1 (racemic) [Compound 95]	5.00 mg/kg
C/C(=C\c1ccc2nnn(C)c2c1)C(=O)Nc1ccc(C(C(C)C)n2ccnc2)cc1 (racemic) [Compound 602]	>10.00 mg/kg
CCC(CC)C(c1ccc(NC(=O)Cc2ccc(Cl)cc2)cc1)n1ccnc1 (racemic) [Compound 87]	1.25 mg/kg
CCC(C)C(c1ccc(NC(=O)C(C)=Cc2ccccc2)cc1)n1ccnc1 (mixture of isomers) [Compound 480]	10.00 mg/kg
CCC(CC)C(c1ccc(NC(=O)CN2CCOCC2)cc1)n1ccnc1 (racemic) [Compound 47]	2.50 mg/kg
CCC(CC)C(c1ccc(NC(=O)Nc2cccc(F)c2)cc1)n1ccnc1 (racemic) [Compound 724]	2.50 mg/kg
CC(C(c1ccc(NC(=O)Cc2ccc3c(c2)OCCO3)cc1)n1ccnc1)N(C)C (single isomer, unassigned) [Compound 339]	>2.50 mg/kg
CC(C)C(c1ccc(NC(=O)Nc2ccccc2)cc1)n1ccnc1 (racemic) [Compound 742]	10.00 mg/kg
CC(=Cc1ccccc1)C(=O)Nc1ccc(C(C(C)c2ccccc2)n2ccnc2)cc1 (single isomer, unassigned) [Compound 489]	2.50 mg/kg
Cc1ccc(CC(=O)Nc2ccc(C(C(C)C)n3ccnc3)cc2)cc1 (racemic) [Compound 666]	2.50 mg/kg
C/C(=C\c1ccccc1)C(=O)Nc1ccc(C(c2ccccn2)C(C)C)cc1 (centres unmarked) [Compound 682]	>20.00 mg/kg
C/C(=C\c1ccccc1)C(=O)Nc1ccc(C(n2ccnc2)C(C)(C)C)cc1 (racemic) [Compound 481]	10.00 mg/kg
CC(C)(C)CC(c1ccc(NC(=O)Cc2ccc(Cl)cc2)cc1)n1cncn1 (racemic) [Compound 623]	>5.00 mg/kg
CC(C)C(c1ccc(NC(=O)CSCc2ccccc2)cc1)n1ccnc1 (racemic) [Compound 210]	20.00 mg/kg
C/C(=C\c1ccncc1)C(=O)Nc1ccc(C(C(C)C)n2cncn2)cc1 (centres unmarked) [Compound 158]	>10.00 mg/kg
CC(Oc1ccccc1)C(c1ccc(NC(=O)Cc2ccc(Cl)cc2)cc1)n1ccnc1 (single isomer, unassigned) [Compound 370]	>10.00 mg/kg
CCC(CC)C(c1ccc(NC(=O)Cc2ccc(C)c(C)c2)cc1)n1ccnc1 (racemic) [Compound 112]	2.50 mg/kg

Source: patent publication US7179825B2, “Retinoic acid mimetic anilides” (Janssen Pharmaceutica N.V., priority 1997, dated 2007)
